Results from patent publication US20240041991A1, “STABLE LIQUID DISPERSINB COMPOSITIONS” (KANE BIOTECH INC., priority 2020, published 2024).
Where two headings read alike, the source gives them in different places. Marks after values point to notes of the source that are not given here.

Test system: DispersinB
Assay type: biochemical, Aggregatibacter actinomycetemcomitans
Conditions: for % enzymatic activity of DispersinB (Mean): polyol % as in label; for temperature stabilizing effect on DispersinB at elevated temperatures: 42° C., 52° C., and 62° C.
Method: Samples from each formula was incubated at 3 different temperatures (42° C., 52° C. and 62° C.) for 3 hours. Following a 3 hour incubation, the samples were brought to room temperature for enzymatic activity assay.
Two-tailed paired T-test was performed by to compare each polyol containing treatment with the treatment devoid of polyol. Treatment with probability values (p) less than 5% (0.05) was considered significant.

O[C@H]1[C@H](O)[C@@H](O)[C@H](O)[C@@H](O)[C@H]1O [inositol, Inositol]
% enzymatic activity of DispersinB (Mean) (4° C., freshly made control without polyol = 100%, listed as 0.25% Inositol): 104%
% enzymatic activity of DispersinB (Mean) (4° C., freshly made control without polyol = 100%, listed as 0.5% Inositol): 101%
% enzymatic activity of DispersinB (Mean) (4° C., freshly made control without polyol = 100%, listed as 1% Inositol): 101%
% enzymatic activity of DispersinB (Mean) (4° C., freshly made control without polyol = 100%, listed as 2% Inositol): 102%
% enzymatic activity of DispersinB (Mean) (4° C., freshly made control without polyol = 100%, listed as 4% Inositol): 107* %
% enzymatic activity of DispersinB (Mean) (4° C., freshly made control without polyol = 100%, listed as 6% Inositol): 112* %
% enzymatic activity of DispersinB (Mean) (4° C., freshly made control without polyol = 100%, listed as 8% Inositol): 118* %
% enzymatic activity of DispersinB (Mean) (4° C., freshly made control without polyol = 100%, listed as 10% Inositol): 115* %
% enzymatic activity of DispersinB (Mean) (4° C., freshly made control without polyol = 100%, listed as 12% Inositol): 118* %
% enzymatic activity of DispersinB (Mean) (4° C., freshly made control without polyol = 100%, listed as 14% Inositol): 124* %
% enzymatic activity of DispersinB (Mean) (42° C. for 3 hours, control without polyol = 100%, listed as 0.25% Inositol): 96* %
% enzymatic activity of DispersinB (Mean) (42° C. for 3 hours, control without polyol = 100%, listed as 0.5% Inositol): 97* %
% enzymatic activity of DispersinB (Mean) (42° C. for 3 hours, control without polyol = 100%, listed as 1% Inositol): 99* %
% enzymatic activity of DispersinB (Mean) (42° C. for 3 hours, control without polyol = 100%, listed as 2% Inositol): 101* %
% enzymatic activity of DispersinB (Mean) (42° C. for 3 hours, control without polyol = 100%, listed as 4% Inositol): 106* %
% enzymatic activity of DispersinB (Mean) (42° C. for 3 hours, control without polyol = 100%, listed as 6% Inositol): 112* %
% enzymatic activity of DispersinB (Mean) (42° C. for 3 hours, control without polyol = 100%, listed as 8% Inositol): 126* %
% enzymatic activity of DispersinB (Mean) (42° C. for 3 hours, control without polyol = 100%, listed as 10% Inositol): 113* %
% enzymatic activity of DispersinB (Mean) (42° C. for 3 hours, control without polyol = 100%, listed as 12% Inositol): 118* %
% enzymatic activity of DispersinB (Mean) (42° C. for 3 hours, control without polyol = 100%, listed as 14% Inositol): 115%
temperature stabilizing effect on DispersinB at elevated temperatures: exhibited temperature stabilizing effect
% enzymatic activity of DispersinB (Mean) (52° C. for 3 hours, control without polyol = 100%, listed as 0.5% Inositol): 1* %
% enzymatic activity of DispersinB (Mean) (52° C. for 3 hours, control without polyol = 100%, listed as 1% Inositol): 3* %
% enzymatic activity of DispersinB (Mean) (52° C. for 3 hours, control without polyol = 100%, listed as 2% Inositol): 8* %
% enzymatic activity of DispersinB (Mean) (52° C. for 3 hours, control without polyol = 100%, listed as 4% Inositol): 19* %
% enzymatic activity of DispersinB (Mean) (52° C. for 3 hours, control without polyol = 100%, listed as 6% Inositol): 37* %
% enzymatic activity of DispersinB (Mean) (52° C. for 3 hours, control without polyol = 100%, listed as 8% Inositol): 66* %
% enzymatic activity of DispersinB (Mean) (52° C. for 3 hours, control without polyol = 100%, listed as 10% Inositol): 77* %
% enzymatic activity of DispersinB (Mean) (52° C. for 3 hours, control without polyol = 100%, listed as 12% Inositol): 86* %
% enzymatic activity of DispersinB (Mean) (52° C. for 3 hours, control without polyol = 100%, listed as 14% Inositol): 92* %

OC[C@@H](O)[C@@H](O)[C@H](O)[C@@H](O)CO [sorbitol, (2S,3R,4R,5R)-Hexane-1,2,3,4,5,6-hexol]
% enzymatic activity of DispersinB (Mean) (4° C., freshly made control without polyol = 100%, listed as Sorbitol 1%): 112* %
% enzymatic activity of DispersinB (Mean) (4° C., freshly made control without polyol = 100%, listed as Sorbitol 2.5%): 107* %
% enzymatic activity of DispersinB (Mean) (4° C., freshly made control without polyol = 100%, listed as Sorbitol 5%): 105* %
% enzymatic activity of DispersinB (Mean) (4° C., freshly made control without polyol = 100%, listed as Sorbitol 10%): 107* %
% enzymatic activity of DispersinB (Mean) (4° C., freshly made control without polyol = 100%, listed as Sorbitol 20%): 110* %
% enzymatic activity of DispersinB (Mean) (4° C., freshly made control without polyol = 100%, listed as Sorbitol 30%): 113* %
% enzymatic activity of DispersinB (Mean) (42° C. for 3 hours, control without polyol = 100%, listed as Sorbitol 1%): 80%
% enzymatic activity of DispersinB (Mean) (42° C. for 3 hours, control without polyol = 100%, listed as Sorbitol 2.5%): 87%
% enzymatic activity of DispersinB (Mean) (42° C. for 3 hours, control without polyol = 100%, listed as Sorbitol 5%): 89* %
% enzymatic activity of DispersinB (Mean) (42° C. for 3 hours, control without polyol = 100%, listed as Sorbitol 10%): 88* %
% enzymatic activity of DispersinB (Mean) (42° C. for 3 hours, control without polyol = 100%, listed as Sorbitol 20%): 88* %
% enzymatic activity of DispersinB (Mean) (42° C. for 3 hours, control without polyol = 100%, listed as Sorbitol 30%): 101* %
temperature stabilizing effect on DispersinB at elevated temperatures: exhibited temperature stabilizing effect
% enzymatic activity of DispersinB (Mean) (52° C. for 3 hours, control without polyol = 100%, listed as Sorbitol 1%): 6* %
% enzymatic activity of DispersinB (Mean) (52° C. for 3 hours, control without polyol = 100%, listed as Sorbitol 2.5%): 21* %
% enzymatic activity of DispersinB (Mean) (52° C. for 3 hours, control without polyol = 100%, listed as Sorbitol 5%): 46* %
% enzymatic activity of DispersinB (Mean) (52° C. for 3 hours, control without polyol = 100%, listed as Sorbitol 10%): 82* %
% enzymatic activity of DispersinB (Mean) (52° C. for 3 hours, control without polyol = 100%, listed as Sorbitol 20%): 94* %
% enzymatic activity of DispersinB (Mean) (52° C. for 3 hours, control without polyol = 100%, listed as Sorbitol 30%): 97* %
% enzymatic activity of DispersinB (Mean) (62° C. for 3 hours, control without polyol = 100%, listed as Sorbitol 5%): 1* %
% enzymatic activity of DispersinB (Mean) (62° C. for 3 hours, control without polyol = 100%, listed as Sorbitol 10%): 3* %
% enzymatic activity of DispersinB (Mean) (62° C. for 3 hours, control without polyol = 100%, listed as Sorbitol 20%): 4* %
% enzymatic activity of DispersinB (Mean) (62° C. for 3 hours, control without polyol = 100%, listed as Sorbitol 30%): 46* %

OC[C@@H](O)[C@@H](O)CO [Erythritol, (2R,3S)-Butane-1,2,3,4-tetrol]
% enzymatic activity of DispersinB (Mean) (4° C., freshly made control without polyol = 100%, listed as 1% Erythritol): 105%
% enzymatic activity of DispersinB (Mean) (4° C., freshly made control without polyol = 100%, listed as 2.5% Erythritol): 97%
% enzymatic activity of DispersinB (Mean) (4° C., freshly made control without polyol = 100%, listed as 5% Erythritol): 101%
% enzymatic activity of DispersinB (Mean) (4° C., freshly made control without polyol = 100%, listed as 10% Erythritol): 97%
% enzymatic activity of DispersinB (Mean) (4° C., freshly made control without polyol = 100%, listed as 15% Erythritol): 96%
% enzymatic activity of DispersinB (Mean) (4° C., freshly made control without polyol = 100%, listed as 20% Erythritol): 104%
% enzymatic activity of DispersinB (Mean) (4° C., freshly made control without polyol = 100%, listed as 25% Erythritol): 109%
% enzymatic activity of DispersinB (Mean) (42° C. for 3 hours, control without polyol = 100%, listed as 1% Erythritol): 109* %
% enzymatic activity of DispersinB (Mean) (42° C. for 3 hours, control without polyol = 100%, listed as 2.5% Erythritol): 107* %
% enzymatic activity of DispersinB (Mean) (42° C. for 3 hours, control without polyol = 100%, listed as 5% Erythritol): 106* %
% enzymatic activity of DispersinB (Mean) (42° C. for 3 hours, control without polyol = 100%, listed as 10% Erythritol): 107* %
% enzymatic activity of DispersinB (Mean) (42° C. for 3 hours, control without polyol = 100%, listed as 15% Erythritol): 119* %
% enzymatic activity of DispersinB (Mean) (42° C. for 3 hours, control without polyol = 100%, listed as 20% Erythritol): 113* %
% enzymatic activity of DispersinB (Mean) (42° C. for 3 hours, control without polyol = 100%, listed as 25% Erythritol): 117* %
% enzymatic activity of DispersinB (Mean) (52° C. for 3 hours, control without polyol = 100%, listed as 1% Erythritol): 6* %
% enzymatic activity of DispersinB (Mean) (52° C. for 3 hours, control without polyol = 100%, listed as 2.5% Erythritol): 20* %
% enzymatic activity of DispersinB (Mean) (52° C. for 3 hours, control without polyol = 100%, listed as 5% Erythritol): 33* %
% enzymatic activity of DispersinB (Mean) (52° C. for 3 hours, control without polyol = 100%, listed as 10% Erythritol): 58* %
% enzymatic activity of DispersinB (Mean) (52° C. for 3 hours, control without polyol = 100%, listed as 15% Erythritol): 78* %
% enzymatic activity of DispersinB (Mean) (52° C. for 3 hours, control without polyol = 100%, listed as 20% Erythritol): 95* %
% enzymatic activity of DispersinB (Mean) (52° C. for 3 hours, control without polyol = 100%, listed as 25% Erythritol): 121* %
% enzymatic activity of DispersinB (Mean) (62° C. for 3 hours, control without polyol = 100%, listed as 1% Erythritol): 0%
% enzymatic activity of DispersinB (Mean) (62° C. for 3 hours, control without polyol = 100%, listed as 2.5% Erythritol): 0%
% enzymatic activity of DispersinB (Mean) (62° C. for 3 hours, control without polyol = 100%, listed as 5% Erythritol): 0%
% enzymatic activity of DispersinB (Mean) (62° C. for 3 hours, control without polyol = 100%, listed as 10% Erythritol): 0%
% enzymatic activity of DispersinB (Mean) (62° C. for 3 hours, control without polyol = 100%, listed as 15% Erythritol): 0%
% enzymatic activity of DispersinB (Mean) (62° C. for 3 hours, control without polyol = 100%, listed as 20% Erythritol): 0%
% enzymatic activity of DispersinB (Mean) (62° C. for 3 hours, control without polyol = 100%, listed as 25% Erythritol): 20* %
